For test [1], the target named is T1, CDK6/CyclinD1 (Homo sapiens, UniProt Q00534).
T1 construct: purchased Carna 04-114
As to the kind of experiment: In vitro cell-free CDK6/CyclinD1 kinase activity assay (TR-FRET). Type of test: biochemical. Conditions: ATP at Km. The protocol: It should be noted that the assay can also be conducted by a similar method. The assay steps in this Test Example are as follows:
The CDK6/CyclinD1 kinase activity was determined using a time-resolved fluorescence resonance energy transfer (TR-FRET) method. Measurements were performed in a reaction volume of 20 μL using 384-well assay plates. […] The reaction was stopped by adding a mixture of a peptide antibody (trade name: Cisbio, product No. 64CUSKAY) and Sa-XL665 (trade name: Cisbio, product No. 610SAXLB) diluted in HTRF KinEASE detection buffer (trade name: Cisbio, product No. 62SDBRDF, containing EDTA). After the mixture was incubated for 1 hour at room temperature, the plate was read. The TR-FRET signal was measured on a multimode plate reader (EnVision™, a multi-function microplate detector, PerkinElmer) at an excitation wavelength (λEx) of 330 nm and detection wavelengths (λEm) of 615 and 665 nm. The activity was determined by the ratio of fluorescence at 665 nm to that at 615 nm. For each compound, the enzyme activities of different concentrations of the compound were measured to determine IC50. The negative control contained no inhibitor. Two no-enzyme controls were used to determine baseline fluorescence levels. IC50 was obtained by fitting using the GraphPad 6.02 software.
8-10 concentrations were prepared for each compound, and formulated in DMSO. The stock concentration was 200× the working concentration. For example, if the working concentration was 100 nM, the corresponding concentration of the formulated stock solution was 20 μM.
In the analysis of in vitro inhibitory activity on CDK kinase, the IC50 value of each of the Example compounds and Reference Example compounds was determined.
A general note: TR-FRET usually uses a lanthanide donor and a delayed reading to cut background.

The test system of test [2] is MCF-7 cells. As to the kind of experiment: Cell viability assay, MCF-7 cells (CellTiter-Glo, 168 h). Type of test: cell-based. The settings on record: Homo sapiens, MCF7. On the procedure: An in vitro cell viability assay was conducted using some Example compounds following the steps below:
1. After recovery, MCF-7 cells (obtained from the Shanghai Cell Bank of the Chinese Academy of Sciences) were cultured at 37° C., 5% CO2, and 95% humidity.
2. 8 compound solutions at different concentrations were prepared for each Example compound. 50 μL of the compound solution at each concentration was added to a 96-well black plate.
3. The cell concentration was adjusted to about 30,000 cells/mL. 100 μL of the cell suspension was added to the 96-well plate, and mixed well to a final cell density of about 3,000 cells/well.
4. The 96-well plate was incubated at 37° C., 5% CO2, and 95% humidity for 168 h, i.e., 7 days.
5. The cell survival rate was measured by the method of CellTiter-Glo® Luminescent Cell Viability Assay (Promega, Cat #G7572). The fluorescence data were read on a microplate reader (EnVision™, a multi-function microplate detector, PerkinElmer).
6. The obtained fluorescence data were analyzed using the GraphPad Prism software. The cell survival rate was calculated for each Example compound at each concentration, and the IC50 interval of each Example compound was determined.
A general note: In ATP-based viability assays light output follows the ATP content of the culture.

The results in this text go back to patent US20230002393A1, “CDK KINASE INHIBITOR” (BEIJING BENICALL BIOTECH CO., LTD., priority 2019, published 2023).

T1 sequence (Q00534 whole entry): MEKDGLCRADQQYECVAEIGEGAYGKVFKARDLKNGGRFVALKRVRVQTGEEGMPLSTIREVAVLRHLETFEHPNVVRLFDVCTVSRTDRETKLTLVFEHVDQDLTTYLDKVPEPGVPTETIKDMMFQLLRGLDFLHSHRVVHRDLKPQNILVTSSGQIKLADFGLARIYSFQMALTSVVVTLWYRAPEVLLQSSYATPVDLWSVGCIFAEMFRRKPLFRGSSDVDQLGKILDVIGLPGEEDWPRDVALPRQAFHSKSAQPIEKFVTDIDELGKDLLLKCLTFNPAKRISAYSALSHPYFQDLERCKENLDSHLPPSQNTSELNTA
T1 sequence (P24385 whole entry partner): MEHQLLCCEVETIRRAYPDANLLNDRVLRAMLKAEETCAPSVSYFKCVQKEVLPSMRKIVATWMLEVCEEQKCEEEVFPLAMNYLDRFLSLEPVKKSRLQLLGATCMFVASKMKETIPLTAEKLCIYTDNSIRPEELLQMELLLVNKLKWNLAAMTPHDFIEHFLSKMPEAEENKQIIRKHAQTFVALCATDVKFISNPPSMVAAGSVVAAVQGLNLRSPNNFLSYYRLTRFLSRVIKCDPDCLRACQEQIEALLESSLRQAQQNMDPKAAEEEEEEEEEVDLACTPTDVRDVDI

One may read the IC50 as the concentration needed to halve the response being measured. A higher IC50 goes with weaker potency in that assay. Regarding `N#Cc1cc2cnc(Nc3ccc(N4CCNCC4)cc3)nn2c1Br` [Example 1], the half-inhibitory concentration (IC50) in test [1] is below 0.1 µM; in test [2], below 0.5 µM.
As to `N#Cc1cc2cnc(Nc3ccc(N4CCNCC4)cc3)nn2c1C1=CCCC1` [Example 2], the results for the IC50 in test [1] and in test [2] were below 0.1 µM and below 0.5 µM, respectively.
Turning to `N#Cc1cc2cnc(Nc3ccc(N4CCNCC4)cc3)nn2c1-c1ccccc1` [Example 3], the IC50 in test [1] was below 0.1 µM; in test [2] it was below 0.5 µM.
The corresponding values for `C1=C(c2ccc3cnc(Nc4ccc(N5CCNCC5)cc4)nn23)CCC1` [Example 4] are 0.1 to 1 µM and below 0.5 µM.
Turning to `CN1CCN(c2ccc(Nc3ncc4ccc(C5=CCCC5)n4n3)cc2)CC1` [Example 5], the IC50 in test [1] is 0.1 to 1 µM; in test [2] it was below 0.5 µM.
In the same order, the values of `N#Cc1cc2cnc(Nc3ccc(N4CCNCC4)cc3)nn2c1N1CCCC1` [Example 6] are below 0.1 µM and below 0.5 µM.
As to `N#Cc1cc2cnc(Nc3ccc(N4CCNCC4)cc3)nn2c1-c1ccc(Cl)cc1` [Example 7], the half-inhibitory concentration (IC50) is below 0.1 µM in test [1] and below 0.5 µM in test [2].
In the same order, the values of `Cn1cc(-c2c(Br)c3cnc(Nc4ccc(N5CCNCC5)cc4)nn3c2Br)cn1` [Example 8] are below 0.1 µM and 0.5 to 2.5 µM.
Consider `COc1ccc(-c2c(C#N)cc3cnc(Nc4ccc(N5CCNCC5)cc4)nn23)cc1` [Example 9], for which the IC50 was below 0.1 µM in test [1] and below 0.5 µM in test [2].
The corresponding values for `COc1ccccc1-c1c(C#N)cc2cnc(Nc3ccc(N4CCNCC4)cc3)nn12` [Example 10] are below 0.1 µM and below 0.5 µM.
Molecule `CN(C)C(=O)c1cc2cnc(Nc3ccc(N4CCNCC4)cn3)nn2c1-c1cccnc1` [Example 36] displayed an IC50 in test [1] of 0.1 to 1 µM.
Turning to `COCCOc1ccc(-c2c(C(=O)N(C)C)cc3cnc(Nc4ccc(N5CCC6(CC5)CNC6)cn4)nn23)cc1` [Example 48], in test [1], the IC50 is below 0.1 µM.
In test [1], `CN(C)C(=O)c1cc2cnc(Nc3ccc(N4CCNCC4)cn3)nn2c1-c1cnn(C)c1` [Example 56] showed an IC50 of 0.1 to 1 µM.
`CN(C)C(=O)c1cc2cnc(Nc3ccc(N4CC5(CNC5)C4)cn3)nn2c1-c1ccncc1` [Example 61] gave an IC50 in test [1] below 0.1 µM.
As for `COc1cc(F)ccc1-c1c(C(=O)N(C)C)cc2cnc(Nc3ccc(N4CCC5(CC4)CNC5)cn3)nn12` [Example 62], the IC50 in test [1] was 0.1 to 1 µM.
The same measure, in the same setting: as for `CN(C)C(=O)c1cc2cnc(Nc3ccc(N4CCC5(CC4)CNC5)cn3)nn2c1-c1ccncc1` [Example 63], the figure is below 0.1 µM.
In turn, `CN(C)C(=O)c1cc2cnc(Nc3ccc(N4CCC5(CC4)CNC5)cn3)nn2c1-c1cnn(C)c1` [Example 64] registered an IC50 in test [1] of 0.1 to 1 µM.
Regarding `CN(C)C(=O)c1cc2cnc(Nc3ccc(N4CC5(CNC5)C4)cn3)nn2c1-c1cnn(C)c1` [Example 66], the IC50 in test [1] is below 0.1 µM.
The same measure, in the same setting: as for `Cc1nn(C)cc1-c1c(C(=O)N(C)C)cc2cnc(Nc3ccc(N4CC5(CNC5)C4)cn3)nn12` [Example 67], the figure is 0.1 to 1 µM; as for `CN(C)C(=O)c1cc2cnc(Nc3ccc(N4CC5(CCNC5)C4)cn3)nn2c1-c1cnn(C)c1` [Example 70], below 0.1 µM; as for `Cn1cc(-c2cc3cnc(Nc4ccc(N5CCNCC5)cn4)nn3c2C2=CCCC2)ncc1=O` [Example 77], 0.1 to 1 µM.
The molecule `Cn1cc(-c2cc3cnc(Nc4ccc(N5CCNCC5)cn4)nn3c2N2CCOCC2)cn1` [Example 79] registered an IC50 in test [1] below 0.1 µM.
On the same count and under the same terms, with `Cn1ccc(-c2cc3cnc(Nc4ccc(N5CCNCC5)cn4)nn3c2C2=CCCC2)cc1=O` [Example 80] the figure was below 0.1 µM; with `COc1ccc(-c2c(-c3cnn(C)c3)c(-c3ccc(OC)cc3)n3nc(Nc4ccc(N5CCNCC5)cn4)ncc23)cc1` [Reference Example 129, reference compound], above 3 µM; with `Cn1cc(-c2c(C3=CCCC3)c3cnc(Nc4ccc(N5CCNCC5)cn4)nn3c2C2=CCCC2)cn1` [Reference Example 130, reference compound], 1 to 3 µM.
